According to ChEMBL document CHEMBL1177848, “Synthesis of novel 6,6a,7,8-tetrahydro-5H-naphtho[1,2-e]pyrimido[4,5-b][1,4]diazepines under microwave irradiation as potential anti-tumor agents” (2010):
Active and inactive are the calls of the source. No cut-off for these calls is given here.

How the values were obtained:
KM12 = assay: Growth inhibition of human KM12 cells after 48 hrs by sulforhodamine B assay; type: functional; settings: KM12, 48 h
UACC-62 [1] = assay: Growth inhibition of human UACC62 cells at 1 uM after 48 hrs by sulforhodamine B assay; type: functional, cell-based
CAKI-1 = assay: Growth inhibition of human Caki1 cells after 48 hrs by sulforhodamine B assay; type: functional; settings: CAKI-1, 48 h
Malme-3M = assay: Growth inhibition of human MALME-3M cells after 48 hrs by sulforhodamine B assay; type: functional
TK-10 = assay: Growth inhibition of human TK10 cells after 48 hrs by sulforhodamine B assay; type: functional; settings: TK-10, 48 h
U-251 = assay: Growth inhibition of human U251 cells at 1 uM after 48 hrs by sulforhodamine B assay; type: functional, cell-based
COLO 205 = assay: Growth inhibition of human COLO205 cells after 48 hrs by sulforhodamine B assay; type: functional; settings: COLO 205, 48 h
A549 = assay: Growth inhibition of human A549 cells at 1 uM after 48 hrs by sulforhodamine B assay; type: functional, cell-based
MDA-MB-231 [2] = assay: Growth inhibition of human MDA-MB-231 cells at 1 uM after 48 hrs by sulforhodamine B assay; type: functional, cell-based
EKVX [3] = assay: Growth inhibition of human EKVX cells at 1 uM after 48 hrs by sulforhodamine B assay; type: functional, cell-based
MCF7 = assay: Growth inhibition of human MCF7 cells at 1 uM after 48 hrs by sulforhodamine B assay; type: functional, cell-based
UO-31 = assay: Growth inhibition of human UO31 cells after 48 hrs by sulforhodamine B assay; type: functional; settings: UO-31, 48 h
ACHN = assay: Growth inhibition of human ACHN cells after 48 hrs by sulforhodamine B assay; type: functional
K562 = assay: Growth inhibition of human K562 cells at 1 uM after 48 hrs by sulforhodamine B assay; type: functional, cell-based
UACC-257 [4] = assay: Growth inhibition of human UACC257 cells at 1 uM after 48 hrs by sulforhodamine B assay; type: functional, cell-based
SK-MEL-28 = assay: Growth inhibition of human SK-MEL-28 cells at 1 uM after 48 hrs by sulforhodamine B assay; type: functional, cell-based
HT-29 = assay: Growth inhibition of human HT-29 cells at 1 uM after 48 hrs by sulforhodamine B assay; type: functional, cell-based
MDA-MB-468 [5] = assay: Growth inhibition of human MDA-MB-468 cells at 1 uM after 48 hrs by sulforhodamine B assay; type: functional, cell-based
OVCAR-3 = assay: Growth inhibition of human OVCAR-3 cells at 1 uM after 48 hrs by sulforhodamine B assay; type: functional, cell-based
NCI/ADR-RES [6] = assay: Growth inhibition of human NCI/ADR-RES cells at 1 uM after 48 hrs by sulforhodamine B assay; type: functional, cell-based
MDA-MB-468 [7] = assay: Growth inhibition of human MDA-MB-468 cells after 48 hrs by sulforhodamine B assay; type: functional; settings: MDA-MB-468, 48 h
SF-295 = assay: Growth inhibition of human SF295 cells at 1 uM after 48 hrs by sulforhodamine B assay; type: functional, cell-based
LOX IMVI = assay: Growth inhibition of human LOXIMVI cells at 1 uM after 48 hrs by sulforhodamine B assay; type: functional, cell-based
SK-MEL-5 = assay: Growth inhibition of human SK-MEL-5 cells at 1 uM after 48 hrs by sulforhodamine B assay; type: functional, cell-based
MDA-MB-231 [8] = assay: Growth inhibition of human MDA-MB-231 cells after 48 hrs by sulforhodamine B assay; type: functional; settings: MDA-MB-231, 48 h
UACC-257 [9] = assay: Growth inhibition of human UACC257 cells after 48 hrs by sulforhodamine B assay; type: functional; settings: UACC-257, 48 h
M14 = assay: Growth inhibition of human M14 cells at 1 uM after 48 hrs by sulforhodamine B assay; type: functional, cell-based
RPMI-8226 [10] = assay: Growth inhibition of human RPMI8226 cells after 48 hrs by sulforhodamine B assay; type: functional; settings: RPMI-8226, 48 h
NCI-H23 [11] = assay: Growth inhibition of human NCI-H23 cells at 1 uM after 48 hrs by sulforhodamine B assay; type: functional, cell-based
A498 [12] = assay: Growth inhibition of human A498 cells at 1 uM after 48 hrs by sulforhodamine B assay; type: functional, cell-based
PC-3 [13] = assay: Growth inhibition of human PC3 cells after 48 hrs by sulforhodamine B assay; type: functional; settings: PC-3, 48 h
UACC-62 [14] = assay: Growth inhibition of human UACC62 cells after 48 hrs by sulforhodamine B assay; type: functional; settings: UACC-62, 48 h
HOP-92 = assay: Growth inhibition of human HOP92 cells after 48 hrs by sulforhodamine B assay; type: functional; settings: HOP-92, 48 h
OVCAR-8 = assay: Growth inhibition of human OVCAR8 cells at 1 uM after 48 hrs by sulforhodamine B assay; type: functional, cell-based
PC-3 [15] = assay: Growth inhibition of human PC3 cells at 1 uM after 48 hrs by sulforhodamine B assay; type: functional, cell-based
SW-620 = assay: Growth inhibition of human SW620 cells at 1 uM after 48 hrs by sulforhodamine B assay; type: functional, cell-based
HCC 2998 = assay: Growth inhibition of human HCC2998 cells at 1 uM after 48 hrs by sulforhodamine B assay; type: functional, cell-based
HL-60 = assay: Growth inhibition of human HL-60(TB) cells at 1 uM after 48 hrs by sulforhodamine B assay; type: functional, cell-based
NCI-H23 [16] = assay: Growth inhibition of human NCI-H23 cells after 48 hrs by sulforhodamine B assay; type: functional; settings: NCI-H23, 48 h
SK-MEL-2 = assay: Growth inhibition of human SK-MEL-2 cells at 1 uM after 48 hrs by sulforhodamine B assay; type: functional, cell-based
EKVX [17] = assay: Growth inhibition of human EKVX cells after 48 hrs by sulforhodamine B assay; type: functional
NCI/ADR-RES [18] = assay: Growth inhibition of human NCI/ADR-RES cells after 48 hrs by sulforhodamine B assay; type: functional
A498 [19] = assay: Growth inhibition of human A498 cells after 48 hrs by sulforhodamine B assay; type: functional; settings: A498, 48 h
RPMI-8226 [20] = assay: Growth inhibition of human RPMI8226 cells at 1 uM after 48 hrs by sulforhodamine B assay; type: functional, cell-based
786-0 = assay: Growth inhibition of human 786-0 cells at 1 uM after 48 hrs by sulforhodamine B assay; type: functional, cell-based
NCI-H460 = assay: Growth inhibition of human NCI-H460 cells after 48 hrs by sulforhodamine B assay; type: functional; settings: NCI-H460, 48 h
[21] = read-out: LC50 (the source's name)

## Nc1nc(N)c2c(n1)NC(c1ccc(Cl)cc1)C1CCc3ccccc3C1=N2 (stereo not given)
KM12
  GI50: 8.48 µM
  LC50 (concentration killing 50% of cells): 45.6 µM
UACC-62 [1]
  growth inhibition (GI): inactive
CAKI-1
  GI50: 4.33 µM
CAKI-1; [21]
  CC50: 50 µM
Malme-3M
  GI50: 8.48 µM
  LC50: 54 µM
TK-10
  GI50: 8.2 µM
  LC50 (50% lethal concentration): 58 µM
U-251
  growth inhibition (GI): inactive
COLO 205
  GI50: 2.78 µM
  LC50 (50% lethal concentration): 30.1 µM
A549
  growth inhibition (GI): inactive
MDA-MB-231 [2]
  growth inhibition (GI): inactive
EKVX [3]
  growth inhibition (GI): inactive
MCF7
  growth inhibition (GI): inactive
UO-31
  GI50: 3.63 µM
  LC50: 46.2 µM
ACHN
  GI50: 4.72 µM
  LC50 (50% lethal concentration): 44.2 µM
K562
  growth inhibition (GI): inactive
UACC-257 [4]
  growth inhibition (GI): inactive
SK-MEL-28
  growth inhibition (GI): inactive
HT-29
  growth inhibition (GI): inactive
MDA-MB-468 [5]
  growth inhibition (GI): inactive
OVCAR-3
  growth inhibition (GI): inactive
NCI/ADR-RES [6]
  growth inhibition (GI): inactive
MDA-MB-468 [7]
  GI50: 1.6 µM
MDA-MB-468 [7]; [21]
  CC50: 54.5 µM
SF-295
  growth inhibition (GI): inactive
LOX IMVI
  growth inhibition (GI): inactive
SK-MEL-5
  growth inhibition (GI): inactive
MDA-MB-231 [8]
  GI50: 9.73 µM
MDA-MB-231 [8]; [21]
  CC50: 47.9 µM
UACC-257 [9]
  GI50: 7.07 µM
UACC-257 [9]; [21]
  CC50: 44.9 µM
M14
  growth inhibition (GI): inactive
RPMI-8226 [10]
  GI50: 2.75 µM
  LC50: 57.9 µM
NCI-H23 [11]
  growth inhibition (GI): inactive
A498 [12]
  growth inhibition (GI): inactive
PC-3 [13]
  GI50: 2.86 µM
  LC50: 48.9 µM
UACC-62 [14]
  GI50: 3.66 µM
  LC50: 43.3 µM
HOP-92
  GI50: 2.26 µM
  LC50 (50% lethal concentration): 31.9 µM
OVCAR-8
  growth inhibition (GI): inactive
PC-3 [15]
  growth inhibition (GI): inactive
SW-620
  growth inhibition (GI): inactive
HCC 2998
  growth inhibition (GI): inactive
HL-60
  growth inhibition (GI): inactive
NCI-H23 [16]
  GI50: 4.88 µM
  LC50: 44.7 µM
SK-MEL-2
  growth inhibition (GI): inactive
EKVX [17]
  GI50: 3.62 µM
  LC50: 96.5 µM
NCI/ADR-RES [18]
  GI50: 5.53 µM
  LC50 (concentration killing 50% of cells): 43.8 µM
A498 [19]
  GI50: 5.34 µM
  LC50: 44.9 µM
RPMI-8226 [20]
  growth inhibition (GI): inactive
786-0
  growth inhibition (GI): inactive
NCI-H460
  GI50: 3.77 µM
  LC50: 39.1 µM
